The assay addresses T1, Gq coupled P2u purinergic receptor (THP-1) (Homo sapiens, UniProt P41231).
T1 construct: human monocytic leukemia cell line that carried the Gq coupled P2u purinergic receptor (THP-1); endogenous in cells; host or cells: THP-1 (human monocytic leukemia cell line)
Briefly: model calcium flux assay in THP-1 cells in a microfluidic device. In kind it is cell-based. As to conditions: THP-1 cells preloaded with Fluo-3 or Fluo-4; UTP 100, 300, 1000 and 3000 nM; detection 15 seconds after exposure. An excerpt: The device shown in FIG. 1A was used to test the dose response of a human monocytic leukemia cell line that carried the Gq coupled P2u purinergic receptor (THP-1), as a model calcium flux assay. Briefly, a phospholipase C/IP3/calcium signal transduction pathway is activated when the receptor binds to its ligand UTP. When the cells are preloaded with a calcium sensitive indicator, i.e., Fluo-3 or Fluo-4 (available from Molecular Probes, Eugene, Oreg.). The transient increase in intracellular calcium is then detected as a fluorescent signal.
In the present example, THP-1 cells were preloaded with Fluo-3 or Fluo-4, as well as a nucleic acid stain (Syto-62 from Molecular Probes). The cells were washed and resuspended in Cell Buffer (1.56 ml HBSS, 0.94 ml 33% Ficoll, 5 μl HEPES (1 M stock), 25 μl 100× PBC, 25 μl 10% BSA, and 0.546 ml OPTI-Prep (65% stock)) and added to reservoir 106. Different concentrations of UTP in Cell Buffer (100, 300, 1000 and 3000 nM, respectively) were then added to reagent reservoirs 110-116. […]
In order to monitor the stepwise increase of each UTP reagent solution, an additional marker solution, BODIPY-arginine, was added to the reagent reservoirs 110-116. […] Briefly, the slope of calcium signal (response) vs. Syto 62 signal (cell number) was calculated for each UTP concentration. […]
Background: Calcium assays in cells follow changes in intracellular calcium, usually with a dye or a luminescent sensor.

T1 sequence (P41231 whole entry): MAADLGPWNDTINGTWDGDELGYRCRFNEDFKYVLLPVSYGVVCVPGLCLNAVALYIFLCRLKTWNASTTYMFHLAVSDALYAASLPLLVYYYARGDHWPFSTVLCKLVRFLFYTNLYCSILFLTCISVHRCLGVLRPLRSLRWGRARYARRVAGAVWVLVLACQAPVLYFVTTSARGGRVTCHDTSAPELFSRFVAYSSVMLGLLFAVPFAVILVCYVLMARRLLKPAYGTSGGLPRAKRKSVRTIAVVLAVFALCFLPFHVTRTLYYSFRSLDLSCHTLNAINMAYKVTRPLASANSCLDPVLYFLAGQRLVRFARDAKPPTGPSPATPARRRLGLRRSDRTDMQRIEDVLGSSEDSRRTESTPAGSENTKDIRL

On to `O=c1ccn([C@@H]2O[C@H](COP(=O)(O)OP(=O)(O)OP(=O)(O)O)[C@@H](O)[C@H]2O)c(=O)[nH]1` [UTP], for which the “calcium signal (fluorescent peaks from each cell) with stepwise addition of UTP” value is “increase discernibly in size”.

Values taken from patent publication US7276330B2, “Devices, systems and methods for time domain multiplexing of reagents” (Caliper Technologies Corp., priority 1999, dated 2007).
